This assay has as its system orthotopic U87MG brain glioma. The assay can be described thus: Effect on survival in orthotopic U87MG brain glioma model in nude mice. It is filed as in vivo. Particulars: BALB/c nude mice, 40 mg·kg^-1 (as irinotecan), i.v. via tail, Q4D×3, dosing from day 12 after inoculation.

In patent publication US11191843B2, “Multi-arm targeting anti-cancer conjugate” (priority 2017, dated 2021) one finds Median survival time data, which are given here for one compound.

Experimental: Experimental animals: Female BALB/c nude mice (number of animals: 150, weeks of age: 6 to 8 weeks) were purchased from Beijing Vital River Laboratory Animal Technology Co., Ltd., and housed in an SPF animal room. The temperature was 20° C. to 25° C., the relative humidity was 40% to 70%, and the light and dark were respectively 12 hours. The animals had free access to water and food. After about one week of normal feeding, upon a veterinary inspection, mice with good physical signs and conditions could be selected for this experiment. A marking pen was used to mark the base of the tails of the animals before the grouping, and each animal was marked by ear clipping after the grouping.
Transplantable tumor cell strain: Brain glioma cell U87MG, derived from Cell Bank of Committee on Type Culture Collection of Chinese Academy of Science (CAS, stored frozen in liquid nitrogen in the laboratory).
According to the condition of cell growth, the cells were passaged once or twice every week, and were passaged in a ratio of 1:2 to 1:6.
Preparation of the animal model: U87MG cells in logarithmic phase of growth were collected. […] The cells were charged into a 50 mL centrifuge tube after being pipetted with a pipettor to make them evenly dispersed, and the centrifuge tube was placed in an ice box. […]
Data recording and calculation formula: The survival time of the animals were recorded.

In turn, `CCc1c2c(nc3ccc(OC(=O)N4CCC(N5CCCCC5)CC4)cc13)-c1cc3c(c(=O)n1C2)COC(=O)[C@]3(O)CC` [irinotecan] had a Median survival time of 27 days.
